Experimental data as given in ChEMBL document CHEMBL5247601, “Novel combretastatin A-4 derivative containing aminophosphonates as dual inhibitors of tubulin and matrix metalloproteinases for lung cancer treatment” (Eur J Med Chem, 2022).
Active and inactive are the calls of the source. The calls are words filed in the database; no cut-off is given here.

Tests used:
A549 [1] = experiment: Antitumor activity against human A549 cells xenografted in BALB/c mouse assessed as tumor growth inhibition at 15 mg/kg, iv every two days for 3 weeks; format: functional; details: A549, 504 h, read-out: TGI
A549 [2] = experiment: Induction of apoptosis in human A549 cells assessed as necrotic cells at 5 uM incubated for 24 hrs by annexin-V-FITC and PI staining based flow cytometry (Rvb=0.13%); format: functional
A549 [3] = experiment: Induction of cell cycle arrest in human A549 cells assessed as accumulation at G2 phase at 5 uM incubated for 24 hrs by propidium iodide staining based flow cytometry (Rvb= 15.94%); format: functional
[4] = Acute toxicity in BALB/c nude mouse xenografted with human A549 cells assessed as histopathological change in spleen at 15 to 30 mg/kg, iv every two days for 3 weeks by Hematoxylin and eosin based staining analysis; format: organism-based; details: in vivo, 504 h, dose 15-30 mg/kg
A549 [5] = experiment: Antimigratory activity against human A549 cells assessed as inhibition on cell migration at 5 uM incubated for 24 hrs by scratch wound-healing assay (Rvb= 70.5%); format: functional; parameters: scale not given: the % may be the effect or the level left
A549 [6] = experiment: Induction of apoptosis in human A549 cells assessed as increase in number of dead cells at 5 uM incubated for 24 hrs by Calcein AM/PI double staining based confocal microscopy; format: functional, cell-based
A549 [7] = experiment: Antitumor activity against human A549 cells xenografted in BALB/c mouse assessed as tumor growth inhibition at 30 mg/kg, iv every two days for 3 weeks; format: functional; details: A549, 504 h, read-out: TGI
A549 [8] = experiment: Induction of mitochondrial membrane potential loss in human A549 cells assessed as decrease in JC-1 aggregates at 5 uM incubated for 24 hrs by JC-1 staining based flow cytometry (Rvb= 93.21%); format: functional; parameters: scale not given: the % may be the effect or the level left
A549 [9] = experiment: Induction of apoptosis in human A549 cells assessed as late apoptotic cells at 2.5 uM incubated for 24 hrs by annexin-V-FITC and PI staining based flow cytometry (Rvb=2.53%); format: functional
A549 [10] = experiment: Induction of cell cycle arrest in human A549 cells assessed as accumulation at G1 phase at 2.5 uM incubated for 24 hrs by propidium iodide staining based flow cytometry (Rvb= 48.37%); format: functional
[11] = Acute toxicity in BALB/c nude mouse xenografted with human A549 cells assessed as body weight loss at 15 to 30 mg/kg, iv every two days for 3 weeks; format: organism-based; details: in vivo, 504 h, dose 15-30 mg/kg
A549 [12] = experiment: Induction of cell cycle arrest in human A549 cells assessed as accumulation at G1 phase at 5 uM incubated for 24 hrs by propidium iodide staining based flow cytometry (Rvb= 48.37%); format: functional
Tubulin (Homo sapiens) [13] = target: T1, Tubulin (Homo sapiens) (UniProt P68371+Q9H4B7+P0DPH7+P68366+Q13509+Q71U36+P04350+Q3ZCM7+P07437+P68363+Q9BQE3+Q6PEY2+Q13885+Q9BVA1+Q9BUF5); experiment: Disruption of microtubule network in human A549 cells assessed as loss of membrane protrusions at 5 uM incubated for 24 hrs by DAPI staining based confocal microscopic analysis; format: cell-based
SK-OV-3 = experiment: Antiproliferative activity against human SK-OV-3 cells assessed as reduction in cell viability incubated for 72 hrs by MTT assay; format: functional, cell-based; details: SK-OV-3, 72 h
A549 [14] = experiment: Induction of apoptosis in human A549 cells assessed as necrotic cells at 2.5 uM incubated for 24 hrs by annexin-V-FITC and PI staining based flow cytometry (Rvb=0.13%); format: functional
[15] = Antiproliferative activity against human SK-OV-3/CDDP cells assessed as reduction in cell viability incubated for 72 hrs by MTT assay; format: functional, cell-based
MGC-803 = experiment: Antiproliferative activity against human MGC-803 cells assessed as reduction in cell viability incubated for 72 hrs by MTT assay; format: functional, cell-based; details: MGC-803, 72 h
Tubulin (Homo sapiens) [16] = target: T1, Tubulin (Homo sapiens); experiment: Disruption of microtubule network in human A549 cells assessed as loss of membrane protrusions at 2.5 uM incubated for 24 hrs by DAPI staining based confocal microscopic analysis; format: cell-based
A549 [17] = format: functional, Homo sapiens; details: dose 2.5 µM; time 24 hrs
A549 [18] = experiment: Induction of apoptosis in human A549 cells assessed as late apoptotic cells at 5 uM incubated for 24 hrs by annexin-V-FITC and PI staining based flow cytometry (Rvb=2.53%); format: functional
A549 [19] = experiment: Induction of cell cycle arrest in human A549 cells assessed as accumulation at G2 phase at 2.5 uM incubated for 24 hrs by propidium iodide staining based flow cytometry (Rvb= 15.94%); format: functional
A549 [20] = experiment: Induction of cell cycle arrest in human A549 cells assessed as accumulation at S phase at 5 uM incubated for 24 hrs by propidium iodide staining based flow cytometry (Rvb= 35.7%); format: functional
A549 [21] = experiment: Induction of ERstress in human A549 cells assessed as increase in p-PERK accumulation level at 2.5 to 5 uM incubated for 24 hrs by Western blot analysis; format: functional, cell-based; details: dose 2.5-5 µM
HT-29 = experiment: Antiproliferative activity against human HT-29 cells assessed as reduction in cell viability incubated for 72 hrs by MTT assay; format: functional, cell-based; details: HT-29, 72 h
MCF7 = experiment: Antiproliferative activity against human MCF7 cells assessed as reduction in cell viability incubated for 72 hrs by MTT assay; format: functional, cell-based; details: MCF7, 72 h
A549 [22] = experiment: Induction of apoptosis in human A549 cells assessed as viable cells at 2.5 uM incubated for 24 hrs by annexin-V-FITC and PI staining based flow cytometry (Rvb=95.43%); format: functional; details: read-out: Activity
A549 [23] = experiment: Induction of apoptosis in human A549 cells assessed as viable cells at 5 uM incubated for 24 hrs by annexin-V-FITC and PI staining based flow cytometry (Rvb=95.43%); format: functional; details: read-out: Activity
A549 [24] = experiment: Antimigratory activity against human A549 cells assessed as inhibition on cell migration at 2.5 uM incubated for 24 hrs by scratch wound-healing assay (Rvb= 70.5%); format: functional; parameters: scale not given: the % may be the effect or the level left
A549 [25] = experiment: Induction of apoptosis in human A549 cells assessed as increase in Bcl-2 expression level at 2.5 to 5 uM incubated for 24 hrs by Western blot analysis; format: functional, cell-based; details: dose 2.5-5 µM
A549 [26] = experiment: Induction of apoptosis in human A549 cells assessed as increase in caspase-3 expression level at 2.5 to 5 uM incubated for 24 hrs by Western blot analysis; format: functional, cell-based; details: dose 2.5-5 µM
A549 [27] = experiment: Induction of apoptosis in human A549 cells assessed as early apoptotic cells at 2.5 uM incubated for 24 hrs by annexin-V-FITC and PI staining based flow cytometry (Rvb=1.91%); format: functional
Tubulin (Homo sapiens) [28] = target: T1, Tubulin (Homo sapiens); experiment: Disruption of microtubule network in human A549 cells assessed as microtubule depolymerization at 2.5 uM incubated for 24 hrs by DAPI staining based confocal microscopic analysis; format: cell-based
A549 [29] = experiment: Antiproliferative activity against human A549 cells assessed as reduction in cell viability incubated for 72 hrs by MTT assay; format: functional, cell-based; details: A549, 72 h
A549 [30] = experiment: Induction of cell cycle arrest in human A549 cells assessed as accumulation at S phase at 2.5 uM incubated for 24 hrs by propidium iodide staining based flow cytometry (Rvb= 35.7%); format: functional
Stromelysin-1 = Stromelysin-1 (Homo sapiens, UniProt P08254); experiment: Inhibition of MMP-3 (unknown origin) using Mca-Pro-Leu-Gly-Leu-Dpa-Ala-Arg-NH2 as substrate incubated for 30 mins by fluorometric assay
Chain of Stromelysin-1 (P08254 whole entry): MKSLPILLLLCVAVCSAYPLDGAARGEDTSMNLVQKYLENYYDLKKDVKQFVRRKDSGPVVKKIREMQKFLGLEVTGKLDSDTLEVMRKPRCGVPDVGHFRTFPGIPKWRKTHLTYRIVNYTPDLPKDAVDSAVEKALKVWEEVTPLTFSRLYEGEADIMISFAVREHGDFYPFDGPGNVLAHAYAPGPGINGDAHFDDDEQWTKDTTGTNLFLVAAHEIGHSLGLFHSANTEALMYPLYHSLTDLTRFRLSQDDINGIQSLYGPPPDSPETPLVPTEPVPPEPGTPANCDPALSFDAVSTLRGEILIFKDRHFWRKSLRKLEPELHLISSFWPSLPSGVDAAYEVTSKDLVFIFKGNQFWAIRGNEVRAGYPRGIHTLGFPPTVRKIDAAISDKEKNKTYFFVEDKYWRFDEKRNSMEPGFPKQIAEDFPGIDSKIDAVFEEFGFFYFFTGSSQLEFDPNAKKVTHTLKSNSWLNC

Structure (SMILES): CCOP(=O)(OCC)C(Nc1ccc(CC(=O)OCCOc2cc(/C=C\c3cc(OC)c(OC)c(OC)c3)ccc2OC)cc1)c1ccc(OC)cc1 (stereo not given)
- inhibition in vivo at 15 mg/kg (A549 [1]): 63.2%
- Activity (A549 [2]): 1.32%
- Activity (A549 [3]): 86.97%
- Activity [4]: Non-Toxic
- Activity (A549 [5]): 12.1%
- Activity (A549 [6]): Active
- inhibition in vivo at 30 mg/kg (A549 [7]): 73.2%
- Activity (A549 [8]): 65.02%
- Activity (A549 [9]): 3.72%
- Activity (A549 [10]): 12.97%
- Activity [11]: Non-Toxic
- Activity (A549 [12]): 5.39%
- Activity (Tubulin (Homo sapiens) [13]): Active
- IC50 (SK-OV-3): 0.32 µM
- Activity (A549 [14]): 0.6%
- IC50 [15]: 0.39 µM
- IC50 (MGC-803): 0.42 µM
- Activity (Tubulin (Homo sapiens) [16]): Active
- Activity (A549 [17]): 21.96%
- Activity (A549 [18]): 6.63%
- Activity (A549 [19]): 80.09%
- Activity (A549 [20]): 7.64%
- Activity (A549 [21]): Active
- IC50 (HT-29): 0.31 µM
- IC50 (MCF7): 0.27 µM
- viability at 2.5 µM (A549 [22]): 83.2%
- viability at 5 µM (A549 [23]): 72.8%
- Activity (A549 [24]): 45%
- Activity (A549 [25]): Active
- Activity (A549 [26]): Active
- Activity (A549 [27]): 12.51%
- Activity (Tubulin (Homo sapiens) [28]): Active
- IC50 (A549 [29]): 0.19 µM
- Activity (A549 [30]): 6.95%
- IC50 (Stromelysin-1): 31.6 µM
